{
  "source": "patent US9822128B1",
  "about": "“Substituted spirooxindoles” (KING SAUD UNIVERSITY, priority 2017, dated 2017)",
  "format_in_all_cases": "cell-based, human",
  "key": {"HCT-116 cells": {"system": "HCT-116 cells", "assay": "Wound-healing assay", "conditions": "HCT-116, 1 μM, images at 0, 4, 24 and 48 hours, vs DMSO", "protocol": "HCT-116 cells were seeded in 6 well plate as 10*10^4 cells per ml (2 ml in each well) and incubated overnight at 37° C. and 5% CO2. On the second day, a scratch was created in each well by using a sterile P200 tip, and then the medium was replaced with fresh medium containing either DMSO or 1 μM of compound 4d. Photomicrograph images were taken at different time points (0, 4, 24 and 48 hours) to monitor the wound closure. After that, the cells were washed two times with ice-cold 1×PBS and fixed with ice-cold methanol for 20 min at 4° C. The fixed cells were washed two times with 1×PBS and stained with 0.5% crystal violet for 30 min. The extra stain was washed off by dH2O until no color in the washing is observed. The images were captured by Gx microscopes (GXMGXD202 Inverted Microscope) (10× Eyepiece) after staining with crystal violet. The size of the wound was measured by using ImageJ 1.47v software. […] This confirms the ability of compound 4d to enhance tumor suppressor activities."}, "HCT-116": {"system": "HCT-116", "assay": "Cell cycle analysis (propidium iodide flow cytometry)", "conditions": "HCT-116, 2 μM, 24 hours", "protocol": "The cells (HCT-116) were seeded 5*10^4 cells/mL in a 6-well plate (2 mL/well) and allowed to adhere overnight at 37° C. and 5% CO2. The cells were incubated with or without 2 μM of compound 4d for 24 hours. The cells were washed twice with ice-cold 1×PBS and collected after trypsinzation. The cell pellet was washed two times with ice-cold 1×PBS and fixed with ice-cold 70% ethanol overnight at −20° C. After that, the cells were washed once with ice-cold PBS and the second wash was done with ice-cold PBS-2% FBS. The cell pellet was re-suspended in 500 μL Propidium Iodide (PI)/RNase (BD Biosciences, BDB550825) staining solution for 15 min at room temperature. The samples were incubated for 15 min in the dark and analyzed within 1 hour by BD Accuri™ C6 Plus flow cytometer. […] The arrest of the cell cycle in subG1 indicates the induction of apoptosis."}, "PC-3": {"system": "PC-3", "assay": "MTT cytotoxicity assay, prostate carcinoma cells", "conditions": "for IC50: Homo sapiens, PC-3, MTT, 48 hrs incubation", "protocol": "The cytotoxic activity of the compounds was tested against different mammalian cancer cells, prostate carcinoma cells (PC-3), hepatocellular carcinoma (HepG2) and colon cancer cells (HCT-116) and against African green monkey kidney cell line (Vero-B). The cell lines were obtained from American Type Culture Collection (ATCC). The cells were cultivated at 37° C. and 10% CO2 in DMEM (Lonza, 12-604F) medium supplemented with 10% fetal bovine serum (FBS, Lonza, Cat. No. 14-801E), 100 IU/ml penicillin and 100 μg/ml streptomycin (Lonza, 17-602E). Cisplatin (cis-diamineplatinum (II) dichloride) was used as a positive control and was obtained from Sigma then dissolved in 0.9% saline then stored as 8 mM stock solution at −20° C. The synthesized compounds were solubilized in DMSO and stored at −20° C. 0.5% crystal violet was prepared in Methanol and was used to stain the viable cells (Feoktistova, Geserick et al. 2016). Crystal violet binds to proteins and DNA in the adherent and viable cells so the stain is an indicator for the viability of the treated cells. The viability of the cells were quantified by using MTT reagent (3-(4,5-dimethylthiazol-2-yl)-2,5-diphenyl tetrazolium bromide), which measure the activity of mitochondrial dehydrogenase in the viable cells (Slater, Sawyer et al. 1963, Mosmann 1983).\nCytotoxicity was further assayed as follows. The cells were seeded in 96-well plate as 5*10^4 cells/mL (100 μL/well). A serial dilutions of tested compounds or cisplatin (100, 30, 10, 3.3, 1.1 or 0.37 μM) was added after overnight incubation of the cells at 37° C. and 5% CO2. DMSO was used as a control (0.1%). The cells were incubated for 48 hrs. After that, 15 μl of MTT (5 mg/mL PBS) was added to each well and incubated for another 4 hours. The formazan crystals were solubilized by 100 μL acidified SDS solution (10% SDS/0.01 M HCl). The absorbance was measured after 14 hours of incubation at 37° C. and 5% CO2 at 570 nm by Biotech plate reader. Each experiment was repeated three times and standard deviation was calculated (±). IC50% was calculated as the concentration that cause 50% inhibition for cell growth. The growth of the cells were monitored and the images were acquired by Gx microscopes (GXMGXD202 Inverted Microscope) (10× Eyepiece) after staining with crystal violet."}},
  "note": "Read-outs that look alike come from different tables or passages of the source.",
  "data": [
    {"smiles": "O=C(/C=C/c1ccc(Cl)cc1Cl)[C@H]1[C@H](c2ccc(Cl)cc2Cl)[C@H]2CSCN2[C@]12C(=O)Nc1ccccc12", "note": "[Compound 4d, (3R,6′S,7′R,7a′S)-7′-(2,4-dichlorophenyl)-6′-((E)-3-(2,4-dichlorophenyl)acryloyl)-1′,6′,7′,7a′-tetrahydro-3′H-spiro[indoline-3,5′-pyrrolo[1,2-c]thiazol]-2-one]", "values": [
      {"measurement": "wound closure", "setting": "HCT-116 cells", "result": "inhibited wound closure"},
      {"measurement": "cells arrested in G2/M", "setting": "HCT-116", "result": "around 34.5%"},
      {"measurement": "cells arrested in subG1", "setting": "HCT-116", "result": "~15.5", "unit": "%"},
      {"measurement": "IC50", "setting": "PC-3; read-out: PC-3 (IC50% μM)", "result": "1.8 ± 0.3", "unit": "µM"},
      {"measurement": "IC50", "setting": "PC-3; read-out: PC-3 (IC50% μg/ml)", "result": 1.1, "unit": "µg/mL"},
      {"measurement": "SI", "setting": "PC-3; Selectivity Index from IC50 normal (VERO-B) and IC50 cancer (PC-3)", "result": 2.778}
    ]}
  ]
}
